System: Mut-p53
Assay: Total activity score over combined assays (Table 8)
Design: scale not given here
Settings: for Activity Score: Table 10 summary of activity of the peptides tested; for AS (Activity Score): total score of Table 7
Text: Several alternative and complementary methods to screen lead peptide candidates for conformational and functional effects on Mut-p53 were employed. For increased penetration of peptide across cell membranes each peptide contains 3-6 Arginine residues either as part of its sequence or added either at its N-terminus or its C-terminus. […] In-vitro based assays for evaluation were first performed, such as ELISA for assessment of p53 conformation and sequence-specific DNA binding of p53.

| Substance | Activity Score | AS (Activity Score) |
| --- | --- | --- |
| pCAP82 (QIPHRSSTALQL) | 6 | 6 |
| pCAP83 (HSSHHHPVHSWN) | 25 | 25 |
| pCAP84 (GRRRFCM) | 0 | 0 |
| pCAP85 (KLTIHHH) | 0 | 0 |
| pCAP86 (FGSHHEL) | 0 | 0 |
| pCAP87 (HANLHHT) | 37 | 37 |
| pCAP88 (SYQTMQP) | 6 | 6 |
| pCAP89 (SILTLSCRCRLRLWR) | 8 | 8 |
| pCAP90 (SCRCRLR) | 12 | 12 |
| pCAP91 (STTHIHA) | 7 | 7 |
| pCAP92 (FPHLVSSLTT) | 7 | 7 |
| pCAP93 (ATQHHYIK) | 17 | 17 |
| pCAP94 (LRFIDYP) | 4 | 4 |
| pCAP95 (HQIHRNHTY) | 8 | 8 |
| pCAP96 (GTVDHHA) | 0 | 0 |
| pCAP97 (WNHHHSTPHPAH) | 47 | 47 |
| pCAP98 (HSSGHNFVLVRQ) | 2 | 2 |
| pCAP99 (GLHLFTTDRQGW) | 7 | 7 |
| pCAP100 (FPGHTIH) | 19 | 19 |
| pCAP101 (IRFILIR) | 3 | 3 |
| pCAP102 (SSVHHRG) | 3 | 3 |
| pCAP103 (LRRQLQL) | 3 | 3 |
| pCAP104 (LLRLGLI) | 21 | 21 |
| pCAP105 (SRIVLGW) | 5 | 5 |
| pCAP106 (LIRRCSLQR) | 8 | 8 |
| pCAP107 (DRLSVFLFIM) | 0 | 0 |

| Substance | Activity Score | AS (Activity Score) |
| --- | --- | --- |
| pCAP108 (IIRGNFLIGGRL) | 17 | 17 |
| pCAP109 (GPIKHHLQHH) | 4 | 4 |
| pCAP110 (LFILVFR) | 2 | 2 |
| pCAP111 (SNIHHQV) | 5 | 5 |
| pCAP112 (TTSHHPK) | 2 | 2 |
| pCAP113 (HTTAHTH) | 3 | 3 |
| pCAP114 (AISHHTR) | 0 | 0 |
| pCAP115 (HPHNHTVHNVVY) | 3 | 3 |
| pCAP116 (KHHPFDHRLGNQ) | 0 | 0 |
| pCAP117 (DHSKFVPLFVRQ) | 3 | 3 |
| pCAP118 (SNHHHRHHTNTH) | 13 | 13 |
| pCAP119 (HSAHHTM) | 0 | 0 |
| pCAP120 (SIRTLGRFLIIRV) | 3 | 3 |
| pCAP121 (LTLMRLRIIG) | 5 | 5 |
| pCAP122 (HSYSPYYTFRQH) | 5 | 5 |
| pCAP123 (GLCRIIL) | 3 | 3 |
| pCAP124 (VMVLFRILRGSM) | 2 | 2 |
| pCAP125 (ELGLHRH) | 0 | 0 |
| pCAP126 (RRLRICV) | 0 | 0 |
| pCAP127 (SPPIRHH) | 3 | 3 |
| pCAP128 (CILRLWW) | 19 | 19 |
| pCAP130 (EVTFRHSVVRRRRRRRRRRR) | 13 | 13 |
| pCAP131 (LPNPPERHHRRRRRRRRRRR) | 18 | 18 |
| pCAP132 (NHPWQFPNRWTRRRRRR) | 7 | 7 |
| pCAP133 (SLLIGFGIIRSRRRRRRRR) | 10 | 10 |
| pCAP134 (IRILMFLIGCGRRRRRRRR) | 40 | 40 |

| Substance | Activity Score | AS (Activity Score) |
| --- | --- | --- |
| pCAP135 (HTDSHPHHHHPHRRRRR) | 10 | 10 |
| pCAP136 (SILTLRLRRLRRRRRRRR) | 14 | 14 |
| pCAP137 (GAMHLPWHMGTRRRRRR) | 8 | 8 |
| pCAP138 (YPTQGHLRRRRRRRRRRRR) | 11 | 11 |
| pCAP139 (MHPPDWYHHTPKRRRRRR) | 12 | 12 |
| pCAP140 (TDSHSHHRRRRRRRRRRR) | 6 | 6 |
| pCAP141 (SWQALALYAAGWRRRRRR) | 29 | 29 |
| pCAP142 (TLYLPHWHRHRRRRRRRRRR) | 14 | 14 |
| pCAP143 (IPMNFTSHSLRQRRRRRRRRR) | 6 | 6 |
| pCAP144 (SFILFIRRGRLGRRRRRRRRR) | 49 | 49 |
| pCAP145 (HSSHHHPVHSWNRRRRRRR) | 7 | 7 |
| pCAP146 (HANLHHTRRRRRRRRRRR) | 11 | 11 |
| pCAP147 (ATQHHYIKRRRRRRRRRRR) | 10 | 10 |
| pCAP148 (WNHHHSTPHPRRRRRRRRRR) | 43 | 43 |
| pCAP149 (FPGHTIHRRRRRRRRRRR) | 13 | 13 |
| pCAP150 (IIRGNFLIGGRLRRRRRRRRR) | 26 | 26 |
| pCAP151 (CILRLWWRRRRRRRRRRR) | 33 | 33 |
| pCAP152 (YRRLLIGMRRRRRRRRRRRR) | 11 | 11 |
| pCAP153 (YWSAPQPATRRRRRRRRRRR) | 6 | 6 |
| pCAP154 (LRCLLLLIGRVGRKKRRQRR) | 57 | 57 |
| pCAP155 (IRGRIIRRRRRRRRRR) | 41 | 41 |
| pCAP156 (VPHIHEFTRRRRRRRR) | 0 | 0 |
| pCAP157 (SFILFIRRGRLGRKKRRQRRRP) | 37 | 37 |
| pCAP158 (SFILFIRRGRLGRGDR) | 18 | 18 |

Reference: patent US11028127B2, “Peptides capable of reactivating p53 mutants” (Yeda Research and Development Co. Ltd., priority 2013, dated 2021)
